Measured values from patent publication US7906507B2, “Oxadiazoanthracene compounds for the treatment of diabetes” (TransTech Pharma, Inc., priority 2008, dated 2011).

Target: T1, cloned human GLP-1 receptor (Homo sapiens, UniProt P43220)
T1 construct: expressed in transfected cells; host or cells: CHO or HEK-293 cells
Test: Functional cell-based assay: cAMP functional assay
Conditions: for Emax: 0.5 h, percentage relative to maximal GLP-1-induced cAMP accumulation, na = not active in the assay, read-out: % activation
Method in brief: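 Monolayer cells incubated 30 min at 37 °C with compounds (0.0001–100 μM) in IMDM containing 100 μM RO 20-1724 PDE inhibitor, 0.1% BSA and 2% DMSO. cAMP measured by HTRF.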

T1 sequence (P43220 24-463): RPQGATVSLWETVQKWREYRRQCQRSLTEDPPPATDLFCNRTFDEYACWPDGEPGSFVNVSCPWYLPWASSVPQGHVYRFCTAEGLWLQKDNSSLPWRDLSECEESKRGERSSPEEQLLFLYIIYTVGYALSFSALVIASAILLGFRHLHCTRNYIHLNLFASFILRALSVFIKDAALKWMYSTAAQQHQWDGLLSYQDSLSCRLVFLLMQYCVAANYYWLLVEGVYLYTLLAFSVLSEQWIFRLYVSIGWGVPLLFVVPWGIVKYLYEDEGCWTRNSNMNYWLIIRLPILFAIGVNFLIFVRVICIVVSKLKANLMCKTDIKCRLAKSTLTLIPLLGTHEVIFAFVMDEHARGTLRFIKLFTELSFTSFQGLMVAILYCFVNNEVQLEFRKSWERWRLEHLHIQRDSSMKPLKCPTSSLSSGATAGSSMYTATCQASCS

SMILES | EC50 [µM] | Emax [%]
N#Cc1ccc(-c2ccc(C[C@H](NC(=O)[C@@H]3Cc4cc5c(cc4CN3C(=O)c3ccccc3)OC(c3ccc(OCc4ccc(Cl)c(C(F)(F)F)c4)cc3)C(=O)N5)C(=O)O)cc2)cc1 (stereo partly drawn) [Example 61, (S)-2-({(S)-6-Benzoyl-3-[4-(4-chloro-3-trifluoromethyl-benzyloxy)-phenyl]-2-oxo-2,3,5,6,7,8-hexahydro-1H-4-oxa-1,6-diaza-anthracene-7-carbonyl}-amino)-3-(4′-cyano-biphenyl-4-yl)-propionic acid] | 0.85 | 29
COc1ccc(COc2ccc(C3Oc4cc5c(cc4NC3=O)C[C@@H](C(=O)N[C@@H](Cc3ccc(-c4ccc(C#N)cc4)cc3)C(=O)O)N(C(=O)c3ccccc3)C5)cc2)cc1C(F)(F)F (stereo partly drawn) [Example 62, (S)-2-({(S)-6-Benzoyl-3-[4-(4-methoxy-3-trifluoromethyl-benzyloxy)-phenyl]-2-oxo-2,3,5,6,7,8-hexahydro-1H-4-oxa-1,6-diaza-anthracene-7-carbonyl}-amino)-3-(4′-cyano-biphenyl-4-yl)-propionic acid] | 1 | 15
CC(C)(C)OC(=O)N1Cc2cc3c(cc2C[C@H]1C(=O)N[C@@H](Cc1ccc(-c2ccc(C#N)cc2)cc1)C(=O)O)NC(=O)C(c1ccc(OCc2cnc(Cl)c(Cl)c2)cc1)O3 (stereo partly drawn) [Example 63, (S)-7-[(S)-1-Carboxy-2-(4′-cyano-biphenyl-4-yl)-ethylcarbamoyl]-3-[4-(5,6-dichloro-pyridin-3-ylmethoxy)-phenyl]-2-oxo-1,2,3,5,7,8-hexahydro-4-oxa-1,6-diaza-anthracene-6-carboxylic acid tert-butyl ester] | 0.476 | 23
N#Cc1ccc(-c2ccc(C[C@H](NC(=O)[C@@H]3Cc4cc5c(cc4CN3C(=O)c3ccccc3)OC(c3ccc(OCc4cnc(Cl)c(Cl)c4)cc3)C(=O)N5)C(=O)O)cc2)cc1 (stereo partly drawn) [Example 64, (S)-2-({(S)-6-Benzoyl-3-[4-(5,6-dichloro-pyridin-3-ylmethoxy)-phenyl]-2-oxo-2,3,5,6,7,8-hexahydro-1H-4-oxa-1,6-diaza-anthracene-7-carbonyl}-amino)-3-(4′-cyano-biphenyl-4-yl)-propionic acid] | 0.19 | 36
N#Cc1ccc(-c2ccc(C[C@H](NC(=O)[C@@H]3Cc4cc5c(cc4CN3Cc3ccccc3)OC(c3ccc(OCc4cnc(Cl)c(Cl)c4)cc3)C(=O)N5)C(=O)O)cc2)cc1 (stereo partly drawn) [Example 65, (S)-2-({(8)-6-Benzyl-3-[4-(5,6-dichloro-pyridin-3-ylmethoxy)-phenyl]-2-oxo-2,3,5,6,7,8-hexahydro-1H-4-oxa-1,6-diaza-anthracene-7-carbonyl}-amino)-3-(4′-cyano-biphenyl-4-yl)-propionic acid] | 0.22 | 32
N#Cc1ccc(-c2ccc(C[C@H](NC(=O)[C@@H]3Cc4cc5c(cc4CN3C(=O)c3cccs3)OC(c3ccc(OCc4cnc(Cl)c(Cl)c4)cc3)C(=O)N5)C(=O)O)cc2)cc1 (stereo partly drawn) [Example 66, (S)-3-(4′-Cyano-biphenyl-4-yl)-2-{[(S)-3-[4-(5,6-dichloro-pyridin-3-ylmethoxy)-phenyl]-2-oxo-6-(thiophene-2-carbonyl)-2,3,5,6,7,8-hexahydro-1H-4-oxa-1,6-diaza-anthracene-7-carbonyl]-amino}-propionic acid] | 0.95 | 21
N#Cc1ccc(-c2ccc(C[C@H](NC(=O)[C@@H]3Cc4cc5c(cc4CN3Cc3nccs3)OC(c3ccc(OCc4cccc(Cl)c4)cc3)C(=O)N5)C(=O)O)cc2)cc1 (stereo partly drawn) [Example 67, (S)-2-({(S)-3-[4-(3-Chloro-benzyloxy)-phenyl]-2-oxo-6-thiazol-2-ylmethyl-2,3,5,6,7,8-hexahydro-1H-4-oxa-1,6-diaza-anthracene-7-carbonyl}-amino)-3-(4′-cyano-biphenyl-4-yl)-propionic acid] | 1.15 | 55

Next, values leading:

EC50 [µM] | Emax [%] | SMILES
1.1 | 33 | CC(C)OC(=O)N1Cc2cc3c(cc2C[C@H]1C(=O)N[C@@H](Cc1ccc(-c2ccc(C#N)cc2)cc1)C(=O)O)N(C)C(=O)C(c1ccc(OCc2ccc(Cl)c(Cl)c2)cc1)O3 (stereo partly drawn) [Example 68, (S)-7-[(S)-1-Carboxy-2-(4′-cyano-biphenyl-4-yl)-ethylcarbamoyl]-3-[4-(3,4-dichloro-benzyloxy)-phenyl]-1-methyl-2-oxo-1,2,3,5,7,8-hexahydro-4-oxa-1,6-diaza-anthracene-6-carboxylic acid isopropyl ester]
0.574 | 51 | CN1C(=O)C(c2ccc(OCc3ccc(Cl)c(Cl)c3)cc2)Oc2cc3c(cc21)C[C@@H](C(=O)N[C@@H](Cc1ccc(-c2ccc(C#N)cc2)cc1)C(=O)O)N(CC#Cc1ccccc1)C3 (stereo partly drawn) [Example 69, (S)-3-(4′-Cyano-biphenyl-4-yl)-2-{[(S)-3-[4-(3,4-dichloro-benzyloxy)-phenyl]-1-methyl-2-oxo-6-(3-phenyl-prop-2-ynyl)-2,3,5,6,7,8-hexahydro-1H-4-oxa-1,6-diaza-anthracene-7-carbonyl]-amino}-propionic acid]
0.988 | 6.9 | CCC(c1ccccc1)N1Cc2cc3c(cc2C[C@H]1C(=O)N[C@@H](Cc1ccc(-c2ccc(C#N)cc2)cc1)C(=O)O)N(C)C(=O)C(c1ccc(OCc2ccc(Cl)c(Cl)c2)cc1)O3 (stereo partly drawn) [Example 70, (S)-3-(4′-Cyano-biphenyl-4-yl)-2-{[(S)-3-[4-(3,4-dichloro-benzyloxy)-phenyl]-1-methyl-2-oxo-6-(1-phenyl-propyl)-2,3,5,6,7,8-hexahydro-1H-4-oxa-1,6-diaza-anthracene-7-carbonyl]-amino}-propionic acid]
0.793 | 49 | CCc1ccccc1CN1Cc2cc3c(cc2C[C@H]1C(=O)N[C@@H](Cc1ccc(-c2ccc(C#N)cc2)cc1)C(=O)O)N(C)C(=O)C(c1ccc(OCc2ccc(Cl)c(Cl)c2)cc1)O3 (stereo partly drawn) [Example 71, (S)-3-(4′-Cyano-biphenyl-4-yl)-2-{[(S)-3-[4-(3,4-dichloro-benzyloxy)-phenyl]-6-(2-ethyl-benzyl)-1-methyl-2-oxo-2,3,5,6,7,8-hexahydro-1H-4-oxa-1,6-diaza-anthracene-7-carbonyl]-amino}-propionic acid]
0.327 | 19 | CN1C(=O)C(c2ccc(OCc3ccc(Cl)c(Cl)c3)cc2)Oc2cc3c(cc21)C[C@@H](C(=O)N[C@@H](Cc1ccc(-c2ccc(C#N)cc2)cc1)C(=O)O)N(C1CCCC1)C3 (stereo partly shown) [Example 74]
0.244 | 20 | CN1C(=O)C(c2ccc(OCc3ccc(Cl)c(Cl)c3)cc2)Oc2cc3c(cc21)C[C@@H](C(=O)N[C@@H](Cc1ccc(-c2ccc(C#N)cc2)cc1)C(=O)O)N(C1CCCCC1)C3 (stereo partly drawn) [Example 75, (S)-3-(4′-Cyano-biphenyl-4-yl)-2-({(S)-6-cyclohexyl-3-[4-(3,4-dichloro-benzyloxy)-phenyl]-1-methyl-2-oxo-2,3,5,6,7,8-hexahydro-1H-4-oxa-1,6-diaza-anthracene-7-carbonyl}-amino)-propionic acid]
1.14 | 8.12 | CN1C(=O)C(c2ccc(OCc3ccc(Cl)c(Cl)c3)cc2)Oc2cc3c(cc21)C[C@@H](C(=O)N[C@@H](Cc1ccc(-c2ccc(C#N)cc2)cc1)C(=O)O)N(C1CCC1)C3 (stereo partly drawn) [Example 76, (S)-3-(4′-Cyano-biphenyl-4-yl)-2-({(S)-6-cyclobutyl-3-[4-(3,4-dichloro-benzyloxy)-phenyl]-1-methyl-2-oxo-6(1-phenyl-cyclopentylmethyl)-2,3,5,6,7,8-hexahydro-1H-4-oxa-1,6-diaza-anthracene-7-carbonyl}-amino)-propionic acid]
